Measurements taken from patent US4954490A, “11 β-substituted progesterone analogs” (Research Triangle Institute, priority 1988, dated 1990).
“Also recorded” adds a separate entry of the source.

Columns and labels:
progesterone receptor = molecular target: T1, progesterone receptor (Oryctolagus cuniculus, UniProt P06186); assay: Relative binding affinity to progesterone receptor in uterine cytosol (displacement of tritium-labeled progesterone); design: species or system rabbit (estrogen-primed immature female); settings: for P-RBA/G-RBA: ratio of RBA values for progesterone receptor to glucocorticoid receptor; for Progestin RBA: relative to progesterone (=100), rabbit uterine cytosol
T1 construct: in the cytosol obtained from estrogen-primedimmature rabbit uterus; from tissue; host or cells: uterine cytosol of estrogen-primed immature female rabbits
T1 sequence (P06186 1-930): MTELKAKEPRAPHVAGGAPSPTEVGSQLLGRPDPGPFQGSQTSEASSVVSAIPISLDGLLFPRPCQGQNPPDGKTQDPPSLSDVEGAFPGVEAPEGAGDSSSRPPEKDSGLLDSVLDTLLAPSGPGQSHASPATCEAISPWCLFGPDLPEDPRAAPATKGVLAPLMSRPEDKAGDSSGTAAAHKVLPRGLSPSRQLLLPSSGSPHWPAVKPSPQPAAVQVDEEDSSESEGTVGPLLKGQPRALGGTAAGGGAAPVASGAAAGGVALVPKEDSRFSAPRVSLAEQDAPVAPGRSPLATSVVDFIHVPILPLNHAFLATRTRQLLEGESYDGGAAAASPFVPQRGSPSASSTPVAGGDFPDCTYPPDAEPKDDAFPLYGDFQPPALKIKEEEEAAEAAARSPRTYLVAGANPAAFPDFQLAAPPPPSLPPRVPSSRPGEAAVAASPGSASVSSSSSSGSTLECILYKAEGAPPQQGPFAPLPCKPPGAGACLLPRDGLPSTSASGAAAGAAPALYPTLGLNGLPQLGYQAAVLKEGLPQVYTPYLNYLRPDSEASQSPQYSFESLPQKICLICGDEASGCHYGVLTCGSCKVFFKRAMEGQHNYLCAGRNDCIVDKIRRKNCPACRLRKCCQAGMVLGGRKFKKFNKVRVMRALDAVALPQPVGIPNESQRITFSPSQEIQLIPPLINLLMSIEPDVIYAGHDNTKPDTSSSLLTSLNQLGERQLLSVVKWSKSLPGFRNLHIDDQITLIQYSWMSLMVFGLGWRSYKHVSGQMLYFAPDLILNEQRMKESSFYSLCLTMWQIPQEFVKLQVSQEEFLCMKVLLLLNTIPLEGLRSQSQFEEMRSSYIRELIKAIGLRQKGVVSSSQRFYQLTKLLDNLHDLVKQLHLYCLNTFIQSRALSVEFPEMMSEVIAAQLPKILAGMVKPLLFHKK
Protocol: (§1) The in vitro activity of the subject compounds was determined by measuring the binding affinities (RBA) of these compounds relative to progesterone for the progesterone receptor in the cytosol obtained from estrogen-primedimmature rabbit uterus and by measuring the RBA relative to dexamethasone for the glucocorticoid receptor from thymus of adrenalectomized rats. These assays were carried out by the procedures of J. R. Reel et al., Fertility and Sterility, 31, 552 (1979) (progesterone) and G. P. Chrousos et al., Endocrinology, 107, 472 (1980) (glucocorticoid).
^a Relative ability to displace tritiumlabeled progesterone from the
receptor in uterine cytosol from estrogenprimed immature female rabbits a
compared with progesterone (=100).

glucocorticoid receptor = molecular target: T2, glucocorticoid receptor (Rattus norvegicus, UniProt P06536); assay: Relative binding affinity to glucocorticoid receptor of thymus (displacement of tritium-labeled dexamethasone); design: species or system rat (adrenalectomized); settings: relative to dexamethasone (=100)
T2 construct: glucocorticoid receptor from thymus of adrenalectomized rats; from tissue; host or cells: thymus of adrenalectomized rats
T2 sequence (P06536 1-795): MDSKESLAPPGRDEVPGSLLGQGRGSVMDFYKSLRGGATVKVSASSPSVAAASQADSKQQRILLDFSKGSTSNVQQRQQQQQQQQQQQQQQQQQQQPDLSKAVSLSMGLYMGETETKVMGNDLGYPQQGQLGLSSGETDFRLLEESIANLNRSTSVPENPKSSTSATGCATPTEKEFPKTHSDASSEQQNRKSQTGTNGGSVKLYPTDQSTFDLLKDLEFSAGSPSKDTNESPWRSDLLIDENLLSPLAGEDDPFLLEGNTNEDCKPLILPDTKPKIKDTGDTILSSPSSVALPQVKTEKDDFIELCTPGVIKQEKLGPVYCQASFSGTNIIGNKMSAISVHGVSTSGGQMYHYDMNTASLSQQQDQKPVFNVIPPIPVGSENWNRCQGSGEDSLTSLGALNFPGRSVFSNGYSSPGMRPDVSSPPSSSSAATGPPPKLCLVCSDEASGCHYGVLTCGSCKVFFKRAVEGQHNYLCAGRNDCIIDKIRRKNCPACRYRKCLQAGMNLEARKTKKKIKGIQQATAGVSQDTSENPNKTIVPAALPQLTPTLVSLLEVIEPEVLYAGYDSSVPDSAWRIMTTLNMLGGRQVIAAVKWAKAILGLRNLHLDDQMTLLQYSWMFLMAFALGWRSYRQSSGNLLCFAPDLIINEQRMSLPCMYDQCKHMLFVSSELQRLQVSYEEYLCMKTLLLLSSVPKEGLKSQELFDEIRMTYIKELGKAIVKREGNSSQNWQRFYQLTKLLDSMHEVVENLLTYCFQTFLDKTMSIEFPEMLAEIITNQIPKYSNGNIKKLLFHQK
Protocol: as §1
^b Relative ability to displace tritiumlabeled dexamethasone from the
receptor of the thymus of adrenalectomized rats as compared to […]

[1] = system: endometrial response due to subcutaneous administration of progesterone; assay: Anti-McGinty intrauterine antiprogestational test; format: in vivo, estrogen-primed immature female rabbits; settings: for ED90 (actual dose) / ED50 / ED90 (calculated): intrauterine; for ED50 / ED90 (calculated): from % Inhib = a + b · ln dose
Protocol: The antiprogestational activity of the compounds was studied after both intrauterine and oral administration. In each case the compound was tested for its ability to inhibit the endometrial response due to subcutaneous administration of progesterone to estrogen-primed immature female rabbits. The methodology used for the intrauterine test has been described by D. A. McGinty et al. See Endocrinology, 24, 829 (1939). For oral administration of test compounds, the method used was analogous to that of Clauberg. See Clauberg, Zentr. Gynakol., 54, 2757 (1930) as modified by McPhail J. Physiol. (London), 83, 145 (1935). Each active compound was characterized by a dose-related ability to block the progestational effect of simultaneously administered progesterone. When the percent inhibition was plotted versus the log of the dose, linear relationships were obtained. Linear regression analysis permitted calculation of the ED50 and ED90 values (the doses required for 50% and 90% inhibition of the progesterone effect, respectively). The actual dose which gave 90% or more inhibition is also given, although this value is probably less accurate than the calculated values which are based on the dose-response line. […] Since the intrauterine administration bypasses most of the drug-metabolizing systems of the body, especially the liver, intrinsic activity is expected to correlate reasonably well with binding activity to the receptor, according to currently held hypotheses regarding receptor binding.

[2] = system: endometrial response due to subcutaneous administration of progesterone; assay: Oral antiprogestational activity (Anti-Clauberg); format: in vivo, estrogen-primed immature female rabbits; settings: for % Inhibition: based on change in McPhail Index; for McPhail Index: scale 0-4; for Wt of Uterus: ± SD
Protocol: The antiprogestational activity of the compounds was studied after both intrauterine and oral administration. In each case the compound was tested for its ability to inhibit the endometrial response due to subcutaneous administration of progesterone to estrogen-primed immature female rabbits. The methodology used for the intrauterine test has been described by D. A. McGinty et al. See Endocrinology, 24, 829 (1939). For oral administration of test compounds, the method used was analogous to that of Clauberg. See Clauberg, Zentr. Gynakol., 54, 2757 (1930) as modified by McPhail J. Physiol. (London), 83, 145 (1935).

[3] = system: endometrial proliferation (McPhail Index); assay: Progestational activity, intrauterine (McGinty assay); format: in vivo, estrogen-primed immature female rabbits; settings: right horn control 0
Protocol: In this assay estrogen-primed immature female rabbits are treated by injection of the test compound into the left horn of the uterus while the right horn is left untreated as a control. Each horn is then scored for endometrial proliferation by the McPhail Index. […] It indicates a possible need for reassessment of the current hypotheses regarding the effect of this substituent on antagonist versus agonist activity.

[4] = actual dose giving ≥ 90% inhibition
[5] = total oral dose 1.0 mg, total SC progesterone 0.8 mg, N=6
[6] = total oral dose 5.0 mg, total SC progesterone 0.8 mg, N=6
[7] = total oral dose 10.0 mg, total SC progesterone 0.8 mg, N=5
[8] = progesterone alone, total SC dose 0.8 mg, no oral compound, N=6

| SMILES | P-RBA/G-RBA (progesterone receptor) | Progestin RBA (progesterone receptor) | Glucocort. RBA (glucocorticoid receptor) | ED90 (actual dose) [1, 4] [µg] | ED50 [1] [µg] | ED90 (calculated) [1] [µg] | also measured |
| --- | --- | --- | --- | --- | --- | --- | --- |
| CC(=O)O[C@]1(C(C)=O)CC[C@H]2[C@@H]3CCC4=CC(=O)CCC4=C3[C@@H](c3ccc(N(C)C)cc3)C[C@@]21C [Compound 8a, 17α-acetoxy-11β-(4-N,N-dimethylaminophenyl)-19-norpregna-4,9-diene-3,20-dione] | 0.24 | 47 | 198 | 2.0 | 0.41 | 1.2 | – |
| CC(=O)O[C@]1(C(C)=O)CC[C@H]2[C@@H]3C[C@H](C)C4=CC(=O)CCC4=C3[C@@H](c3ccc(N(C)C)cc3)C[C@@]21C [Compound 8b, 6α-methyl-17α-acetoxy-11β-(4-N,N-dimethylaminophenyl)-19-norpregna-4,9-diene-3,20-dione] | 0.18 | 43 | 242 | 2.0 | 0.54 | 1.9 | % Inhibition [2, 5]: 12.7 ± 3.0%; % Inhibition [2, 6]: 51.6 ± 12.2%; % Inhibition [2, 7]: 67.2 ± 6.1%; McPhail Index [2, 5]: 3.46 ± 0.12; McPhail Index [2, 6]: 1.92 ± 0.48; McPhail Index [2, 7]: 1.30 ± 0.24; Wt of Uterus [2, 5]: 3.26 ± 0.34 g; Wt of Uterus [2, 6]: 2.14 ± 0.22 g; Wt of Uterus [2, 7]: 2.24 ± 0.27 g |
| CC[C@@H]1C[C@H]2[C@@H]3C[C@H](C)C4=CC(=O)CCC4=C3[C@@H](c3ccc(N(C)C)cc3)C[C@]2(C)[C@H]1C(C)=O [Compound 15a, 6α-Methyl-16α-ethyl-11β-(4-N,N-dimethylaminophenyl)-19-norpregna-4,9-diene-3,20-dione] | 0.42 | 61 | 246 | – | – | – | ED90 (actual dose) ([1]; footnote c: no inhibition at tested dose): < 10 µg; McPhail Index, Left Horn (Treated) ([3]; dose 20.0 μg intrauterine): 3.8 ± 0.12; McPhail Index, Left Horn (Treated) ([3]; dose 40.0 μg intrauterine): 3.9 ± 0.12; McPhail Index, Left Horn (Treated) ([3]; dose 80.0 μg intrauterine): 3.8 ± 0.12 |
| CC(=O)C1=CC[C@H]2[C@@H]3CCC4=CC(=O)CCC4=C3[C@@H](c3ccc(N(C)C)cc3)C[C@]12C [Compound 23, 11β-(4-N,N-Dimethylaminophenyl)-19-norpregna-4,9,16-triene-3,20-dione] | – | 8 | – | 1.0 | 0.26 | 0.81 | binding to the progesterone receptor (in words) (progesterone receptor): binds relatively weakly to the progesterone receptor; RBA as fraction of the value of the 17α-acetoxy compounds (progesterone receptor; compared with the 17α-acetoxy compounds): less than one-fifth; antiprogestational activity in vivo (in words) ([1]; rabbit, in vivo, listed as Δ-16 compound): even more potent activity; also recorded: exhibits strong antiprogestational activity |
| CC[C@@H]1C[C@H]2[C@@H]3C[C@@H](C)C4=CC(=O)CCC4=C3[C@@H](c3ccc(N(C)C)cc3)C[C@]2(C)[C@H]1C(C)=O [H, Et, β-CH3, 68-methyl-16α-ethyl-118-(4-N,N-dimethylaminophenyl)-19-norpregna-4,9-diene-3,20-dione] | 0.45 | 48 | 106 | – | – | – | – |
| CC(=O)O[C@]1(C(C)=O)CC[C@H]2[C@@H]3C[C@@H](C)C4=CC(=O)CCC4=C3[C@@H](c3ccc(N(C)C)cc3)C[C@@]21C [OAc, H, β-CH3] | – | 15 | – | – | – | – | – |
| CC(=O)[C@@]1(O)CC[C@H]2[C@@H]3CCC4=CC(=O)CCC4=C3[C@@H](c3ccc(N(C)C)cc3)C[C@@]21C [OH, H, H] | 0.37 | 15 | 41 | – | – | – | – |
| CC(=O)[C@@]1(O)CC[C@H]2[C@@H]3C[C@H](C)C4=CC(=O)CCC4=C3[C@@H](c3ccc(N(C)C)cc3)C[C@@]21C [OH, H, α-CH3] | 0.26 | 46 | 175 | – | – | – | – |
| CC(=O)[C@H]1CC[C@H]2[C@@H]3CCC4=CC(=O)CC[C@]4(C)[C@H]3CC[C@]12C [Progesterone, progesterone] | – | – | – | – | – | – | Wt of Uterus [2, 8]: 3.06 ± 0.45 g; McPhail Index [2, 8]: 3.96 ± 0.04 |
